Assay results taken from the METLIN SMRT retention time set (Domingo-Almenara et al. 2019).

Experiment: gradient 5% acetonitrile 3 min, to 50% in 2 min, to 85% in 15 min, held 3 min, 100 µL/min
Settings: column: Zorbax Extend-C18 2.1 x 50 mm; eluents: water / acetonitrile, 0.1% formic acid
Procedure, shortened: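 Mixtures of ~100 pure standards were chromatographed on a Zorbax Extend-C18 column (2.1 × 50 mm, 1.8 μm) at 100 μL/min using water and acetonitrile, each with 0.1% formic acid. Detection used a quadrupole time-of-flight mass spectrometer in positive and negative ionization mode, and data collection spanned 3 months. Retention time was obtained from adduct peaks picked computationally and each checked manually.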

N#Cc1ccc(N2C=C(C(=O)N3CCCCC3)S(=O)(=O)c3ccc(F)cc32)cc1
RP-LC retention time: 824 s

Cc1nc(-c2ccc3c(c2)n(CC(=O)NCc2ccc4c(c2)OCO4)c(=O)n3C(C)C)no1
RP-LC retention time: 619 s

Cc1oc2ccn(Cc3ccc(F)cc3)c(=O)c2c1C(=O)NCCN(C)C1CCCCC1
RP-LC retention time: 762 s

CCOC(=O)c1c(S(=O)(=O)N2CCC(C(=O)Nc3cc(C)cc(C)c3)CC2)c(C)n(CC)c1C
RP-LC retention time: 980 s

CC(C(=O)N1CCN(c2ccccn2)CC1)n1c2ccccc2c2cnn(C)c(=O)c21 (stereo unspecified)
RP-LC retention time: 627 s

Cc1cc(=O)n(CC(=O)Nc2cc(F)cc(F)c2)c(N2CCOCC2)n1
RP-LC retention time: 724 s

CCCNC(=O)C1CCN(c2nc3ccc(-c4cccs4)nc3s2)CC1
RP-LC retention time: 872 s

CCN(CC)c1ccc(-c2noc(CN3CCC(C)CC3)n2)cn1
RP-LC retention time: 593 s

CCOC(=O)c1c(C)[nH]c(CCC(=O)NCCN2CCCC2)c1C
RP-LC retention time: 554 s

Clc1ccc(OCc2nc(-c3ccc4c(c3)ncn4CCN3CCCC3)no2)cc1
RP-LC retention time: 690 s

CCN(CC)c1ccc(C(=O)O)cc1NC(=O)c1cccs1
RP-LC retention time: 835 s

CN1CCN(C(=O)C2CCN(S(=O)(=O)c3ccc4c(c3)sc(=O)n4C)CC2)CC1
RP-LC retention time: 596 s

Cc1ccc(NC(=O)N2CCC(n3cnc4cc(Cl)ccc4c3=O)CC2)cc1C
RP-LC retention time: 911 s

O=c1n(Cc2ccc(F)cc2)nc2ccc(S(=O)(=O)N3CCOCC3)cn12
RP-LC retention time: 785 s

CC(C)NC(=O)C1CCCN(c2nc3ncn(CC(=O)Nc4ccc5c(c4)CCC5)c(=O)c3s2)C1 (stereo unspecified)
RP-LC retention time: 709 s

O=C1NCCCCCN(C(=O)c2ccc(Cn3ccnc3)o2)[C@H]2CCC[C@@H]12
RP-LC retention time: 567 s

O=C(NC1CCN(Cc2ccccc2)CC1)C1CCCN(c2nccnc2Oc2ccccc2)C1 (stereo unspecified)
RP-LC retention time: 680 s

O=C(NC1CCCCCCC1)C1CCCN(c2cn[nH]c(=O)c2)C1 (stereo unspecified)
RP-LC retention time: 719 s

CCOCCCNC(=O)c1cc2c(n(-c3ccc(C(C)C)cc3)c1=O)CCCC2=O
RP-LC retention time: 952 s

CNC(=O)c1ccc(-c2nc3cc(NS(=O)(=O)c4ccc(Cl)s4)ccc3n2C)cc1
RP-LC retention time: 660 s

Cc1cccc(CN2CCCn3nc(C(=O)NCCc4cnc[nH]4)cc3C2=O)c1
RP-LC retention time: 610 s

CN(C)C[C@@H]1CN(S(C)(=O)=O)C[C@H]1NC(=O)C1(c2ccccc2)CCCC1
RP-LC retention time: 663 s

O=C(NCC1COc2ccccc2O1)c1cc(-c2cccnc2)nc2ccccc12 (stereo unspecified)
RP-LC retention time: 760 s

COCC(=O)NC1CCC12CCN(C(=O)CC1CCCC1)CC2 (stereo unspecified)
RP-LC retention time: 722 s

CCN1c2ccc(C)cc2C(=O)NC12CCN(C(=O)c1ccc(OC)c(OC)c1)CC2
RP-LC retention time: 744 s

CC(C)CN1CCn2cc(C(=O)N3CCN(c4ccccn4)CC3)nc2C1
RP-LC retention time: 526 s

CC(C)Cc1ccc(S(=O)(=O)N2CCc3nc[nH]c3C2)cc1
RP-LC retention time: 693 s

CCCn1cc(S(=O)(=O)Nc2cc(F)ccc2F)c2cccnc21
RP-LC retention time: 890 s

COc1ccccc1N1CCN(C(=O)c2nnc(-c3ccc(S(=O)(=O)N4CCCC4)cc3)o2)CC1
RP-LC retention time: 972 s

CC(=O)Nc1ccc(C2(C(=O)NCc3ccc(Cl)cc3)CCC2)cc1
RP-LC retention time: 785 s

CC(C)CNC(=O)N(C)Cc1nc2cc(C(=O)NC(C)C)ccc2n1C
RP-LC retention time: 593 s

O=C(NC1CC(=O)N(Cc2ccccc2)C1)c1cnccn1 (stereo unspecified)
RP-LC retention time: 632 s

COc1ccc(C2Cn3nnc(-c4nc(-c5cccc(Br)c5)no4)c3CO2)cc1 (stereo unspecified)
RP-LC retention time: 1170 s

O=C(Nc1cc(-c2ccccn2)no1)C1CC1
RP-LC retention time: 668 s

Cc1nn(CC(=O)NC2CCCCCC2)c(=O)c2c(-n3cccc3)n(-c3cccc(F)c3)nc12
RP-LC retention time: 1090 s

O=C(c1csc(-c2ccnc(N3CCOCC3)c2)n1)N1CCCCCC1
RP-LC retention time: 689 s

Cc1nc(CC(=O)NCc2ccc(F)c(Cl)c2)sc1C(=O)NC1CC1
RP-LC retention time: 708 s

CN1CCCn2cc(S(=O)(=O)NCc3ccccc3Cl)cc2C1=O
RP-LC retention time: 704 s

CC(C)CNC(=O)CN1C(=O)C2CCCCN2c2ccc(S(=O)(=O)N(C)C)cc21 (stereo unspecified)
RP-LC retention time: 698 s

CCCN1C(=O)COc2ccc(-c3noc(-c4ccc(Cl)cc4OC)n3)cc21
RP-LC retention time: 1260 s

O=C(CSC1CCc2ccccc2NC1=O)Nc1ccccc1 (stereo unspecified)
RP-LC retention time: 777 s

CCCN1C(=O)C(CC(=O)NCCN(C)C)Sc2ncccc21 (stereo unspecified)
RP-LC retention time: 588 s

CCCCOC(=O)CSc1nnc(-c2cc(OC)c(OC)c(OC)c2)o1
RP-LC retention time: 1000 s

CCOC(=O)COc1cc(-c2ccccc2)nc2ccc(NC(=O)C3CCC3)cc12
RP-LC retention time: 780 s

COc1cc(C(=O)Nc2ncc(Cc3cccc4ccccc34)s2)cc(OC)c1OC
RP-LC retention time: 1030 s

Fc1ccc(-c2noc(Cc3nnc(-c4ccc(Cl)cc4)o3)n2)cc1
RP-LC retention time: 1070 s

CNC(=O)[C@H](Cc1c[nH]c2ccccc12)NC(=O)[C@@H](CC(=O)NO)CC(C)C
RP-LC retention time: 662 s

Cc1ccc(-n2c(=O)n(C)c(=O)c3cc(C(=O)Nc4ccc(F)cc4)cnc32)cc1
RP-LC retention time: 904 s

Cc1cccc(-c2nc(N3CCOCC3)ncc2C(=O)O)c1
RP-LC retention time: 787 s

COc1ccccc1C(=O)N1CCCC(COc2ccc(C(=O)NC3CC3)cc2)C1 (stereo unspecified)
RP-LC retention time: 785 s

COc1ccc2[nH]cc(CCNC(=O)C34CCC=C3N(C3CCCC3)C(=O)CC4)c2c1 (stereo unspecified)
RP-LC retention time: 798 s

O=S(=O)(c1ccc(-c2noc(-c3cccc(Cl)c3)n2)cc1)N1CCOCC1
RP-LC retention time: 1170 s

COc1ccccc1-c1cc(C(F)(F)F)n2ncc(C(=O)OCCN3CCCC3=O)c2n1
RP-LC retention time: 894 s

Cc1ccc(-c2nocc2CCC(=O)NCc2ccc3c(c2)OCO3)cc1
RP-LC retention time: 816 s

CCc1cc(=O)n(CC(=O)Nc2ccc(C)cc2)c(N)n1
RP-LC retention time: 617 s

CCC(C)Nc1nc(-c2ccc(C)cc2)nnc1C (stereo unspecified)
RP-LC retention time: 719 s

CC1Oc2ccc(-c3csc(NC(=O)c4cccnc4)n3)cc2N(C)C1=O (stereo unspecified)
RP-LC retention time: 773 s

Cc1nccn1C1CN(C(=O)CCCc2c[nH]c3ccccc23)C1
RP-LC retention time: 611 s

COc1ccc2c(c1)C1(CCN(C(=O)c3cccc(Cl)c3)C1)C(=O)N2 (stereo unspecified)
RP-LC retention time: 753 s

O=C(CN1CCN(Cc2ccccc2)C1=O)NCC1CCCCC1
RP-LC retention time: 682 s

CN1C(=O)C2CCCCN2c2ccc(C(=O)NCCN3CCOCC3)cc21 (stereo unspecified)
RP-LC retention time: 582 s

c1ccc2c(N3CCCC3)nnc(-c3nc(C4CC4)no3)c2c1
RP-LC retention time: 649 s

COc1nccnc1N1CCC(NS(=O)(=O)c2ccc(C)cc2)C1 (stereo unspecified)
RP-LC retention time: 759 s

O=C(NCCOc1ccccc1)Nc1ccc(OC(F)(F)F)cc1
RP-LC retention time: 910 s

O=C(Cc1nnc(-c2cccc(F)c2)o1)NCC1CC1
RP-LC retention time: 722 s

O=C(Nc1cccc(F)c1)c1c(O)c2cccnc2n(-c2ccccc2)c1=O
RP-LC retention time: 1230 s

COc1ccc(C2(C(=O)NCCC3CCN(C(=O)Nc4ccccc4F)CC3)CC2)cc1
RP-LC retention time: 837 s

CCCNc1nnc(-c2nc(C3CC3)no2)c2ccccc12
RP-LC retention time: 660 s

COc1ccc(-c2nc(NCCCN3CCCC(C)C3)c3ccccc3n2)cc1 (stereo unspecified)
RP-LC retention time: 572 s

COc1ccc(C2Cn3cnc(C(=O)N4CCC(C(=O)NCC(C)C)CC4)c3CO2)cc1 (stereo unspecified)
RP-LC retention time: 724 s

CNC(=O)C1CCCN(S(=O)(=O)c2ccc(OC)c(OC)c2)C1 (stereo unspecified)
RP-LC retention time: 657 s

Cc1cccc(S(=O)(=O)N2CCC3(C2)C(=O)N(C)c2ccccc23)c1 (stereo unspecified)
RP-LC retention time: 910 s

O=C(Cc1cccs1)N1CCCC(c2ccnc(-c3ccc(F)cc3)n2)C1 (stereo unspecified)
RP-LC retention time: 1050 s

COc1ccc(S(=O)(=O)N2CCN(c3cc(-n4ccnc4)nc(C)n3)CC2)cc1Cl
RP-LC retention time: 664 s

CCc1cccc(C)c1Nc1c(-c2cccc(O)c2)nc2ncccn12
RP-LC retention time: 730 s

O=C(c1cc(F)ccc1F)N1CCCC2(C1)NC(=O)N(Cc1ccc(Cl)cc1)C2=O (stereo unspecified)
RP-LC retention time: 844 s

O=C(Cn1c(CN2CCCCCC2)nc2ccccc21)N1CCOCC1
RP-LC retention time: 596 s

COc1ccccc1N=NNc1ccccc1OC
RP-LC retention time: 933 s

O=C(c1cn2ccccc2n1)N1CCN(c2cccc(Cl)c2)CC1
RP-LC retention time: 718 s

Cc1oc2c(C)c3oc(=O)c(CC(=O)N4CCC(C(N)=O)CC4)c(C)c3cc2c1C
RP-LC retention time: 735 s

O=C(NCCC1CCN(C(=O)Nc2cc(F)cc(F)c2)CC1)C1CCCC1
RP-LC retention time: 860 s

Cn1cc2c(n1)c(=O)n(Cc1ccc(Cl)cc1)c1nn(Cc3ccccc3)c(=O)n21
RP-LC retention time: 960 s

Cc1oc(-c2ccccc2)nc1Cc1noc(Cc2ccc(F)cc2)n1
RP-LC retention time: 1090 s

CCCN1C(=O)Cc2ccccc2C1C(=O)O (stereo unspecified)
RP-LC retention time: 668 s

CCc1nc2c(=O)n(CC(=O)N3CCCCC3)nc(C)c2s1
RP-LC retention time: 673 s

Nc1nccn(Cc2ccc(F)cc2F)c1=O
RP-LC retention time: 577 s

COc1ccc(OC)c(-c2cc(C(=O)NCc3nc(C)no3)[nH]n2)c1
RP-LC retention time: 662 s

O=C(Nc1cnn(-c2ncncc2N2CCCCC2)c1)C1CC1
RP-LC retention time: 604 s

COCCCNC(=O)CC1CCN(C(=O)c2[nH]c(C)c(C)c2C)CC1
RP-LC retention time: 667 s

O=C(NCc1ccccc1)C1CCN(Cc2nncn2-c2ccccc2F)CC1
RP-LC retention time: 570 s

CCOC(=O)C1CCN(C(=O)C(C)n2c(=O)c(C(F)(F)F)nc3cc(C)c(C)cc32)CC1 (stereo unspecified)
RP-LC retention time: 1170 s
